From patent publication US20060008506A1, “Method for preparing therapeutic ophthalmic articles using compressed fluids” (priority 2004, published 2006)

How the values were obtained:
[1] = analysis of preservation and storage media after three-month storage of impregnated Focus Dailies lenses; format: physicochemical; conditions: for effective total mass of Flurbiprofen impregnated in the article: sum of storage and release amounts; for mass of Flurbiprofen released in preservation and storage media: three-month storage in 0.9% NaCl
Method: Afterwards, the two ophthalmic articles were stored and preserved in physiological serum (saline solution, 0.9% NaCl) in closed vessels, for three months. After this period, in vitro kinetic studies were carried out in respect of Flurbiprofen release, following the experimental procedures already described at Example 1.
The maximum cumulative amount of released Flurbiprofen was about 0.007 mg for experiment I and about 0.035 mg for experiment II. These amounts were actually attained after 7 hours of release kinetic studies. […] However, in these cases it cannot be assumed that these values correspond to the total amount of Flurbiprofen impregnated in each ophthalmic article, given that part of the impregnated drug was released in the preservation medium during the three-month storage period. Preservation and storage media were also analyzed and the mass of Flurbiprofen released therein was about 0.0030 mg for experiment I and about 0.0025 mg for experiment II. Therefore, we can assume that the effective total mass of Flurbiprofen impregnated in the two articles was 0.0100 mg and 0.0375 mg respectively for experiments I and II.

[2] = in vitro sustained release kinetic study of impregnated Focus Monthly (Vifilcon A) hydrogel contact lens in physiological serum; format: physicochemical; conditions: 90.0 bar, 40.0° C.; for release time at which maximum cumulative amount was attained: 0.9% NaCl at 37° C.; for maximum cumulative amount of released Flurbiprofen: 30 min
Method: A Focus® Monthly® (Ciba Vision, Ga., USA) hydrogel contact lens (ionic, high hydration, FDA Group IV, 55% water+45% Vifilcon A copolymer) was treated by means of the above-mentioned first embodiment of the process, in accordance with the invention and according to FIG. 1. The ophthalmic article was contacted in a sealed high pressure vessel with a mixture of compressed carbon Dioxide (99.998% purity, Air Liquid), Flurbiprofen (CAS[5104-49-4], 97% purity, Sigma-Aldrich) and Ethanol (CAS[64-17-5], 99.8% purity, Fluka), as co-solvent (5% molar in respect of carbon Dioxide). The operating conditions were 90.0 bar and 40.0° C. No stirring was employed. After a 30 minute processing time, the vessel was slowly expanded (for 1.5 minutes) and the compressed fluid (carbon Dioxide) was removed. Part of the co-solvent (Ethanol) was dragged out of the system by the Carbon Dioxide, while its remaining part precipitated, as a liquid, to the bottom of the high pressure vessel. The high pressure vessel was then removed from the temperature controlled bath, opened and the ophthalmic article was recovered, impregnated with Flurbiprofen. Later on, the impregnated ophthalmic article was placed in 5 ml of physiological serum (saline solution, 0.9% NaCl) inside a closed vessel. This vessel was subsequently placed inside a temperature controlled bath (at 37° C.), in order to carry out the in vitro sustained release kinetic study of the drug (Flurbiprofen). At regular time intervals (shorter time intervals at the beginning), 3 ml of the release solution (containing the released drug) were removed from the vessel and replaced by 3 ml of fresh physiological serum. The concentration of Flurbiprofen was determined by spectroscopy for each sample collected. A Focus® Monthly® (Ciba Vision, Ga., USA) hydrogel contact lens (ionic, high hydration, FDA Group IV, 55% water+45% Vifilcon A copolymer) was treated by means of the above-mentioned first embodiment of the process, in accordance with the invention and according to FIG. 1. The ophthalmic article was contacted in a sealed high pressure vessel with a mixture of Carbon Dioxide (99.998% purity, Air Liquide) and Flurbiprofen (CAS[5104-49-4], 97% purity, Sigma-Aldrich). No co-solvent was added. The operating conditions were 90.0 bar and 40.0° C. No stirring was employed. After a 30 minute processing time, the vessel was slowly expanded (for 15 minutes) and the compressed fluid (Carbon Dioxide) was removed. The high pressure vessel was then removed from the temperature controlled bath, opened and the ophthalmic article was recovered, impregnated with Flurbiprofen. The in vitro kinetic studies concerning the release of Flurbiprofen were conducted in accordance with the experimental procedures already described at Example 1.

[3] = in vitro release kinetic study of impregnated Focus Dailies (Nelfilcon A) hydrogel contact lenses after three-month storage; format: physicochemical; conditions: for maximum cumulative amount of released Flurbiprofen: CO2, 41° C., after three months storage in 0.9% NaCl
Method: Later on, the impregnated ophthalmic article was placed in 5 ml of physiological serum (saline solution, 0.9% NaCl) inside a closed vessel. This vessel was subsequently placed inside a temperature controlled bath (at 37° C.), in order to carry out the in vitro sustained release kinetic study of the drug (Flurbiprofen). At regular time intervals (shorter time intervals at the beginning), 3 ml of the release solution (containing the released drug) were removed from the vessel and replaced by 3 ml of fresh physiological serum. The concentration of Flurbiprofen was determined by spectroscopy for each sample collected. Two Focus® […]® (Ciba Vision, Ga., USA) hydrogel contact lenses (non ionic, high hydration, FDA Group II, 69% water+31% Nelfilcon A copolymer) were separately treated in two different experiments (I and II) by means of the above-mentioned third embodiment of the process, in accordance with the invention and according to FIG. 3. In both experiments, the ophthalmic articles processed were impregnated with Flurbiprofen (CAS[5104-49-4], 97% purity, Sigma-Aldrich) using Carbon Dioxide (99.998% purity, Air Liquide). No co-solvent was added and no stirring was employed. In experiment I, the operating conditions were 41° C. and 90 bar, while in experiment II the operating conditions were 41° C. and 120 bar. In both experiments, drug solubilization was carried out for 1 hour and 30 minutes, and impregnation was carried out for 1 hour. After impregnation, the vessel was slowly depressurized (for 15 minutes) and the compressed fluid (Carbon Dioxide) was removed. The high pressure vessel was then removed from the temperature controlled bath, opened and the ophthalmic article was recovered, impregnated with Flurbiprofen. Afterwards, the two ophthalmic articles were stored and preserved in physiological serum (saline solution, 0.9% NaCl) in closed vessels, for three months. After this period, in vitro kinetic studies were carried out in respect of Flurbiprofen release, following the experimental procedures already described at Example 1.

[4] = tested on: inflammatory processes; conditions: cited from earlier work
[5] = tested on: baboons; conditions: single dose of 125 mg/Kg; cited from earlier work

## CC(C(=O)O)c1ccc(-c2ccccc2)c(F)c1 (stereo not shown) [Flurbiprofen]
[1]; Example 3, experiment I (41° C., 90 bar)
  effective total mass of Flurbiprofen impregnated in the article: 0.0100 mg
[1]; Example 3, experiment I (90 bar)
  mass of Flurbiprofen released in preservation and storage media: about 0.0030 mg
[1]; Example 3, experiment II (41° C., 120 bar)
  effective total mass of Flurbiprofen impregnated in the article: 0.0375 mg
[1]; Example 3, experiment II (120 bar)
  mass of Flurbiprofen released in preservation and storage media: about 0.0025 mg
[2]; Example 1: CO2 + ethanol co-solvent
  release time at which maximum cumulative amount was attained: 24 h
[2]; Example 1: Focus Monthly lens impregnated with CO2 + 5% molar ethanol co-solvent, release in 5 ml 0.9% NaCl at 37° C.
  maximum cumulative amount of released Flurbiprofen: about 0.25 mg
[2]; Example 2: CO2, no co-solvent
  release time at which maximum cumulative amount was attained: 6 h
[2]; Example 2: Focus Monthly lens impregnated with CO2, no co-solvent, release in 0.9% NaCl at 37° C.
  maximum cumulative amount of released Flurbiprofen: about 0.11 mg
[3]; Example 3, experiment I: Focus Dailies lens, 90 bar
  maximum cumulative amount of released Flurbiprofen: about 0.007 mg
[3]; Example 3, experiment II: Focus Dailies lens, 120 bar
  maximum cumulative amount of released Flurbiprofen: about 0.035 mg
[3]; Example 3, experiments I and II
  release time at which maximum cumulative amounts were attained: 7 h
[4]
  minimum amount of Flurbiprofen to be kept in the eye to prevent inflammatory processes: 0.03 to 0.15 µg
[5]
  acute toxicity: no acute toxicity
